The values that follow come from PubChem BioAssay (NCI).

What all share (assay): NCI anticancer screen, dose series, 48 h
Experiment [1] deals with A549 NSCLC.
Experiment [2] relates to RPMI-8226 leukemia.
Experiment [3] relates to HOP-62 NSCLC.
Experiment [4] concerns MCF7 breast.
Experiment [5] relates to 786-0 renal.
Experiment [6] concerns U251 CNS.
Experiment [7] relates to OVCAR-5 ovarian.
In experiment [8] the test system is OVCAR-8 ovarian.
Experiment [9] relates to SR leukemia.
The test system of experiment [10] is SNB-19 CNS.

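Test compounds were applied to cells in 96-well plates for 48 hours at 5 doses. At the GI50, growth is halved. TGI: concentration producing complete growth inhibition.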

As for `CC(C(=O)O)c1cccc(Oc2ccccc2)c1` (stereo not drawn), the GI50 in experiment [1], in [2], in experiment [3], in experiment [4], in experiment [5] and in [6] was greater than 100 µM throughout. Besides, the GI50 in [7], in experiment [8], in experiment [9] and in experiment [10] was greater than 100 µM throughout. Also, the TGI in experiment [1], in experiment [2], in [3], in experiment [4], in [5] and in experiment [6] was greater than 100 µM each time. Besides, the TGI in experiment [7], in experiment [8], in experiment [9] and in [10] was greater than 100 µM throughout.

Consider `O=[P@@]1(c2ccccc2)O[C@H](COCc2ccccc2)[C@@H](OCc2ccccc2)[C@H](OCc2ccccc2)[C@H]1NCc1ccccc1`, for which the GI50 in experiment [1] is 3.04 µM; in [2] it was 2.97 µM; in [3] it was 3.77 µM; in [4] it was 3.38 µM; in [5] it was 3.03 µM; in experiment [6], 2.97 µM. In addition, the GI50 in [7] is 3.51 µM; in experiment [8], 3.24 µM; in experiment [9] it was 2.37 µM; in experiment [10], 3.71 µM. Further, the TGI in [1] is greater than 100 µM; in experiment [2] it was greater than 100 µM; in [3], greater than 100 µM; in [4] it was 70.4 µM; in experiment [5], greater than 100 µM; in [6], greater than 100 µM. Further, the TGI is greater than 100 µM in [7], greater than 100 µM in [8], 6.69 µM in experiment [9] and greater than 100 µM in experiment [10].

With `COc1ccccc1Nc1ncc(-c2ccccc2)o1`, the GI50 in experiment [1], in experiment [2], in experiment [3], in [4], in experiment [5] and in experiment [6] was greater than 25 µM throughout. Also, the GI50 in experiment [7], in experiment [8], in experiment [9] and in [10] was greater than 25 µM each time. Also, the TGI in [1], in experiment [2], in experiment [3], in experiment [4], in experiment [5] and in [6] was greater than 25 µM each time. Further, the TGI in experiment [7], in experiment [8], in experiment [9] and in [10] was greater than 25 µM throughout.

With `COC(=O)c1ccc2c(c1)/C(=C\c1cc(Br)c(O)c(Br)c1)C(=O)N2`, the GI50 in experiment [1] is 8.19 µM; in experiment [2], 5.21 µM; in experiment [3] it was 10.5 µM; in experiment [4], 8.01 µM; in [5] it was 10.1 µM; in experiment [6], 6.59 µM. The GI50 is 13.5 µM in experiment [7], 13 µM in experiment [8], 8.11 µM in experiment [9] and 12.4 µM in [10]. Further, the TGI in experiment [1], in experiment [2], in experiment [3], in experiment [4], in experiment [5] and in [6] was greater than 25 µM in each case. For the same compound, the TGI in experiment [7], in [8], in experiment [9] and in [10] was greater than 25 µM each time.

As for `COc1cc(/C=C/C(=O)c2cccc(-n3cc(-c4ccc(Cl)cc4)[nH]c3=O)c2)ccc1O`, the GI50 was 4.67 µM in experiment [1]; 1.33 µM in experiment [2]; 3.87 µM in experiment [3]; 1.44 µM in [4]; 2.54 µM in experiment [5]; 2.19 µM in experiment [6]. Further, the GI50 was 6.45 µM in experiment [7], 2.39 µM in [8], 11.8 µM in experiment [9] and 3.52 µM in experiment [10]. In addition, the TGI was greater than 37.7 µM in [1]; 3.76 µM in experiment [2]; 15 µM in experiment [3]; 7.98 µM in [4]; 6.69 µM in [5]; 6.01 µM in experiment [6]. The TGI in [7] is 15.1 µM; in experiment [8] it was greater than 27.3 µM; in experiment [9] it was greater than 100 µM; in [10], 15.6 µM.

On to `O=C(CNS(=O)(=O)Cc1ccccc1)NNc1ccccc1`, for which the TGI in [1], in [2], in [3], in experiment [4], in experiment [5] and in [6] was greater than 100 µM throughout. The TGI in experiment [7], in experiment [8], in [9] and in experiment [10] was greater than 100 µM each time.

Turning to `O=[N+]([O-])c1ccc(CI)cc1`, the GI50 is 3.68 µM in experiment [1]; 2.3 µM in experiment [2]; 3.38 µM in experiment [3]; 3.08 µM in experiment [4]; 4.71 µM in experiment [5]; 2.91 µM in [6]. For the same compound, the GI50 was 6.2 µM in [7], 3.71 µM in [8], 2.24 µM in experiment [9] and 3.03 µM in [10]. The TGI in [1] stood at 14.5 µM; in experiment [2], 5.68 µM; in [3] it was 12.5 µM; in [4], 17.2 µM; in [5], 16.4 µM; in [6], 10.4 µM. The TGI in experiment [7] was 20.4 µM; in experiment [8] it was 13.3 µM; in experiment [9], 10.3 µM; in experiment [10], 14.4 µM.

For the compound `CC1(Br)Cc2ccccc2C1=O` (stereo not drawn), the TGI in [1] was 32.4 µM; in [2], 14.7 µM; in experiment [3], 29.1 µM; in experiment [4] it was 8.52 µM; in [5], 6.39 µM; in experiment [6], 18.7 µM. The TGI in [7] is 14.2 µM; in experiment [8], 15.7 µM; in [9], 1.25 µM; in experiment [10], 81.8 µM. In addition, the GI50 was 3.02 µM in [2], 2.22 µM in experiment [4], 4.11 µM in [8] and 0.129 µM in [9].

Regarding `CC12CCC3c4ccc(O)cc4CCC3C1C/C(=N\O)C2O` (stereo not drawn), the TGI in experiment [1], in experiment [2], in [3], in experiment [4], in experiment [5] and in [6] was greater than 100 µM in each case. Besides, the TGI in [7], in [8], in [9] and in [10] was greater than 100 µM in each case.

As for `CS(=O)(=O)Nc1cc(-c2ccc3ncnc(Nc4c(Cl)ccc5c4OCO5)c3c2)cnc1Cl`, the GI50 is 0.255 µM in [1]; 0.148 µM in experiment [2]; 0.156 µM in experiment [3]; 0.0524 µM in experiment [4]; 0.233 µM in [5]; 0.331 µM in [6]. Besides, the GI50 is 0.164 µM in experiment [7], 0.387 µM in experiment [8], 0.325 µM in experiment [9] and 0.244 µM in [10]. The TGI in experiment [1] was determined as 1.94 µM; in experiment [2] it was 0.566 µM; in [3] it was 3.53 µM; in [4] it was 1.47 µM; in [5], 6.46 µM; in [6], 2.63 µM. The TGI in [7] was determined as 2.1 µM; in experiment [9], 3.41 µM; in experiment [10] it was 3.42 µM.

Consider `CN1CC[C@@H](c2c(O)cc(O)c3c(=O)cc(-c4ccc(C(F)(F)F)cc4Cl)oc23)[C@@H]1CO`, for which the GI50 in experiment [1] is 23.9 µM; in experiment [2], 17.3 µM; in [3], 17.2 µM; in experiment [4] it was 14.5 µM; in experiment [5] it was 13.3 µM; in experiment [6], 16.7 µM. Also, the GI50 in experiment [7] is 14.1 µM; in experiment [8] it was 18.2 µM; in experiment [9], 3.21 µM; in experiment [10] it was 21 µM. For the same compound, the TGI in experiment [1] turned out to be 56.2 µM; in experiment [2], 53.5 µM; in experiment [3], 43.5 µM; in [4], 38.3 µM; in experiment [5], 31.9 µM; in experiment [6] it was 33.9 µM. The TGI in experiment [7] is 59.3 µM; in experiment [8], 42 µM; in [9], 17 µM; in [10], 62.7 µM.

With `CCOC(=O)/C=C/c1ccc(C#Cc2ccccc2)cc1`, the GI50 in [1] was 72.2 µM; in [2] it was 54.5 µM; in experiment [3], greater than 100 µM; in experiment [4], greater than 100 µM; in experiment [5] it was greater than 100 µM; in experiment [6], greater than 100 µM. The GI50 in experiment [7] was greater than 100 µM; in [8] it was greater than 100 µM; in experiment [9], 10.3 µM; in [10], greater than 100 µM. The TGI in experiment [1], in [2], in [3], in [4], in [5] and in experiment [6] was greater than 100 µM in each case. In addition, the TGI in [7], in experiment [8], in experiment [9] and in experiment [10] was greater than 100 µM throughout.

Consider `C=COC(=O)N[C@H]1CCc2cc(OC)c(OC)c(OC)c2-c2ccc(SC)c(=O)cc21`, for which the TGI in experiment [1] is 72.7 µM; in [2], 52.1 µM; in [3], greater than 86.6 µM; in [4], 59.8 µM; in [5], 50.8 µM; in experiment [6], 3.02 µM. Moreover, the TGI in experiment [7] was greater than 75 µM; in [8] it was greater than 80.7 µM; in [9], greater than 15.5 µM; in experiment [10], 24.8 µM.

On to `Clc1nc(Cl)nc(Nc2cccc3ccccc23)n1`, for which the GI50 is greater than 100 µM in experiment [1]; 39.8 µM in [2]; greater than 100 µM in experiment [3]; 36.3 µM in experiment [4]; greater than 100 µM in experiment [5]; greater than 100 µM in experiment [6]. The GI50 was greater than 100 µM in [7], greater than 100 µM in experiment [8], 18.3 µM in experiment [9] and greater than 100 µM in experiment [10]. For the same compound, the TGI in experiment [1], in experiment [2], in [3], in experiment [4], in experiment [5] and in [6] was greater than 100 µM throughout. Moreover, the TGI in experiment [7] is greater than 100 µM; in [8], greater than 100 µM; in experiment [9], 48.3 µM; in experiment [10], greater than 100 µM.

As to `O=S(=O)(Nc1ccc(Cl)cc1Cl)c1ccc(-c2cnc(C3CC3)o2)cc1`, the GI50 was 1.02 µM in experiment [1]; 0.903 µM in experiment [2]; 0.909 µM in experiment [3]; 0.35 µM in [4]; 0.615 µM in [5]; 0.613 µM in experiment [6]. For the same compound, the GI50 in experiment [7] was 2.66 µM; in experiment [8] it was 1.79 µM; in [9], 0.42 µM; in experiment [10], 0.538 µM. Also, the TGI in experiment [1] was greater than 100 µM; in experiment [2] it was 44.8 µM; in [3], 55.4 µM; in experiment [4], 41.2 µM; in experiment [5], greater than 86.5 µM; in [6], 33.8 µM. Besides, the TGI in experiment [7] is greater than 100 µM; in [8] it was greater than 82.1 µM; in experiment [9], greater than 58.9 µM; in experiment [10], greater than 100 µM.

For the compound `COc1ccc(-c2cc(/C=C/C(=O)c3ccc(OC)c(OC)c3)[nH]n2)cc1`, the GI50 in experiment [1] is 1.88 µM; in [2] it was 0.32 µM; in experiment [3] it was 2.35 µM; in experiment [4] it was 0.417 µM; in experiment [5], 1.6 µM; in [6], 1.11 µM. The GI50 in [7] is 1.65 µM; in experiment [8], 2.16 µM; in [9], 0.677 µM; in [10] it was 1.88 µM. Also, the TGI amounted to 5.95 µM in experiment [1]; 1.33 µM in experiment [2]; 6.17 µM in experiment [3]; 1.76 µM in experiment [4]; 3.09 µM in experiment [5]; 2.34 µM in experiment [6]. Further, the TGI in experiment [7] was 4.09 µM; in [8], 10.4 µM; in experiment [9] it was 3.74 µM; in [10], 5.28 µM.
